Test results reported in patent publication US9751869B2, “LXR modulators” (BRISTOL-MYERS SQUIBB COMPANY, priority 2013, dated 2017).

Biological target: T1, LXRβ (Homo sapiens, UniProt P55055)
T1 construct: Co-transfection expression plasmids, comprising full-length LXRα (pCMX-h LXRα or LXRβ (pCMX-hLXRβ)); expressed in transfected cells; host or cells: CV-1 African green monkey kidney cells, transient transfection with pCMX-hLXRβ
T1 sequence (P55055 1-460): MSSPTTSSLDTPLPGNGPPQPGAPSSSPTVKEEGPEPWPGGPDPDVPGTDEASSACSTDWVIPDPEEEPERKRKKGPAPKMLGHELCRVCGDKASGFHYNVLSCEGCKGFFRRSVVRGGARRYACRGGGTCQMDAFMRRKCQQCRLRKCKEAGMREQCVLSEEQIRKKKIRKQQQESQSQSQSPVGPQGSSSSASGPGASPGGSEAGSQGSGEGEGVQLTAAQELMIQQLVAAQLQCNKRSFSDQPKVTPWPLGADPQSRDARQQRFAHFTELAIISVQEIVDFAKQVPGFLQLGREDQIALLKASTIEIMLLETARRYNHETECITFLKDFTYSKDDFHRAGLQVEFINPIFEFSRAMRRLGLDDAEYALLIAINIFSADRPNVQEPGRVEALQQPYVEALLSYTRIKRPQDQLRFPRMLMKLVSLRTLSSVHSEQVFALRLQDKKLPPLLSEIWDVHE
T1 sequence (P19793 1-462 partner): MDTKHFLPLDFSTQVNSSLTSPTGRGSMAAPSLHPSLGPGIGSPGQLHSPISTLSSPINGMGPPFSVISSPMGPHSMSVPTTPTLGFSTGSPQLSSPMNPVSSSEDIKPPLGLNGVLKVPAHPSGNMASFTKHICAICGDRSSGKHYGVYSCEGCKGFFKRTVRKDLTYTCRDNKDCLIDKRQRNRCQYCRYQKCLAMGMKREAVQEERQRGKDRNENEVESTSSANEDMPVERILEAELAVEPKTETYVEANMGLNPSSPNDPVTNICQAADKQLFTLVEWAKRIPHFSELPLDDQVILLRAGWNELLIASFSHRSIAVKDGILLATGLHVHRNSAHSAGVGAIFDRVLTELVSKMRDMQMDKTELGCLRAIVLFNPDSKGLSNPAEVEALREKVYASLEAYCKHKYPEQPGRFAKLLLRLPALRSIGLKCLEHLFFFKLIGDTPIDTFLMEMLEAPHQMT
Experiment: LXR/LXRE co-transfection assay (luciferase reporter) in CV-1 cells, LXRβ
Assay type: cell-based
Settings: for EC50: CV-1 cells transfected with pCMX-hLXRβ and LXREx1-Tk-Luciferase, 20 hours incubation, read-out: LXRbeta agonism EC50; for Emax: read-out: LXRbeta % EFFICACY
Outline: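 CV-1 cells transiently co-transfected with full-length human LXRβ, LXRE-Tk-luciferase reporter and β-galactosidase control, then exposed to compound (≤0.5% DMSO) for 20 h at 37 °C before luminescence read. EC50 from 10-point, half-log dose curves; efficacy relative to the sulfonamide high control, means of 2–3 experiments.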

[1] = CV-1 cells, relative to maximum response of high control N-(3-((4-fluorophenyl)-(naphthalene-2-sulfonyl)amino)propyl)-2,2-dimethylpropionamide

EC50 [nM]	Emax [1] [%]	LXRbeta % EFFICACY [1] [%]	SMILES
7	74		Cc1nc(-c2ccc3c(c2)OC(F)(F)O3)c(-c2cc(-c3cc(F)c(CO)c(S(C)(=O)=O)c3)ccc2-n2cc(Cl)c(C(F)(F)F)n2)o1 [Example 420, (4′-(4-chloro-3-(trifluoromethyl)-1H-pyrazol-1-yl)-3′-(4-(2,2-difluorobenzo[d][1,3]dioxol-5-yl)-2-methyloxazol-5-yl)-3-fluoro-5-(methylsulfonyl)-[1,1′-biphenyl]-4-yl) methanol]
19	62		Cc1nc(-c2ccc3c(c2)OC(F)(F)O3)c(-c2cc(-c3cc(F)c(CO)c(S(C)(=O)=O)c3)ccc2-c2cc(C(C)C#N)nn2C)o1 (centres unmarked) [Example 115, 2-(5-(3-(4-(2,2-difluorobenzo[d][1,3]dioxol-5-yl)-2-methyloxazol-5-yl)-3′-fluoro-4′-(hydroxymethyl)-5′-(methylsulfonyl)-[1,1′-biphenyl]-4-yl)-1-methyl-1H-pyrazol-3-yl)propanenitrile]
30	72		Cc1nc(-c2cc(-c3cc(F)c(CO)c(S(C)(=O)=O)c3)ccc2-c2cc(C(C)(C)CO)nn2C)c(-c2ccc3c(c2)OC(F)(F)O3)o1 [Example 62, 2-(5-(3-(5-(2,2-difluorobenzo[d][1,3]dioxol-5-yl)-2-methyloxazol-4-yl)-3′-fluoro-4′-(hydroxymethyl)-5′-(methylsulfonyl)biphenyl-4-yl)-1-methyl-1H-pyrazol-3-yl)-2-methylpropan-1-ol]
6	61		Cc1nc(-c2ccc(OC(F)F)cc2)c(-c2cc(-c3cc(F)c(CO)c(S(C)(=O)=O)c3)ccc2-n2ccc(C(F)(F)F)n2)o1 [Example 436, (3′-(4-(4-(difluoromethoxy)phenyl)-2-methyloxazol-5-yl)-3-fluoro-5-(methylsulfonyl)-4′-(3-(trifluoromethyl)-1H-pyrazol-1-yl)-[1,1′-biphenyl]-4-yl)methanol]
592	40		Cc1nc(-c2ccc3c(c2)OC(F)(F)O3)c(-c2cc(-c3cc(F)c(CO)c(S(C)(=O)=O)c3)ccc2-c2cc(CC(N)=O)nn2C)o1 [Example 61, 2-(5-(3-(4-(2,2-difluorobenzo[d][1,3]dioxol-5-yl)-2-methyloxazol-5-yl)-3′-fluoro-4′-(hydroxymethyl)-5′-(methylsulfonyl)-[1,1′-biphenyl]-4-yl)-1-methyl-1H-pyrazol-3-yl)acetamide]
67	91		COc1ncc(-c2oc(C)nc2-c2cc(-c3cccc(S(C)(=O)=O)c3)ccc2-n2ccc(C(F)(F)F)n2)cc1F [Example 407, 5-(5-fluoro-6-methoxypyridin-3-yl)-2-methyl-4-(3′-(methylsulfonyl)-4-(3-(trifluoromethyl)-1H-pyrazol-1-yl)biphenyl-3-yl)oxazole]
64	22		Cc1nc(-c2ccc3c(c2)OC(F)(F)O3)c(-c2cc(-c3cccc(S(C)(=O)=O)c3)ccc2-n2ccc(C#N)n2)o1 [Example 362, 1-(3-(4-(2,2-difluorobenzo[d][1,3]dioxol-5-yl)-2-methyloxazol-5-yl)-3′-(methylsulfonyl)-[1,1′-biphenyl]-4-yl)-1H-pyrazole-3-carbonitrile]
178	77		Cc1nc(-c2ccc(Cl)cc2Cl)c(-c2cc(-c3cccc(S(C)(=O)=O)c3)ccc2-n2ccc(C(F)(F)F)n2)o1 [Example 337, 4-(2,4-dichlorophenyl)-2-methyl-5-(3′-(methylsulfonyl)-4-(3-(trifluoromethyl)-1H-pyrazol-1-yl)biphenyl-3-yl)oxazole]
258	57		Cc1nc(-c2ccc3c(c2)OC(F)(F)O3)c(-c2cc(-c3cccc(S(C)(=O)=O)c3)ccc2-c2cc(CO)nn2C)o1 [Example 98, (5-(3-(4-(2,2-difluorobenzo[d][1,3]dioxol-5-yl)-2-methyloxazol-5-yl)-3′-(methylsulfonyl)-[1,1′-biphenyl]-4-yl)-1-methyl-1H-pyrazol-3-yl)methanol]
86		69	Cc1nc(-c2ccc3c(c2)OC(F)(F)O3)c(-c2cc(-c3cccc(S(C)(=O)=O)c3)ccc2-c2cc(C(F)(F)CO)nn2C)o1 [Example 49, 2-(5-(3-(4-(2,2-difluorobenzo[d][1,3]dioxol-5-yl)-2-methyloxazol-5-yl)-3′-(methylsulfonyl)biphenyl-4-yl)-1-methyl-1H-pyrazol-3-yl)-2,2-difluoroethanol]

Second part, the compound before the results:

SMILES	EC50 [nM]	Emax [1] [%]	LXRbeta % EFFICACY [1] [%]
Cc1nc(-c2ccc(OC(F)(F)F)cc2)c(-c2cc(-c3cccc(S(C)(=O)=O)c3)ccc2-n2cc(Cl)c(C(F)(F)F)n2)o1 [Example 380, 5-(4-(4-chloro-3-(trifluoromethyl)-1H-pyrazol-1-yl)-3′-(methylsulfonyl)-[1,1′-biphenyl]-3-yl)-2-methyl-4-(4-(trifluoromethoxy)phenyl) oxazole]	465	29	
CNS(=O)(=O)c1cccc(-c2ccc(-c3cc(C(C)(F)F)nn3C)c(-n3nncc3-c3ccc(OC(F)(F)F)cc3)c2)c1 [Example 20, 4′-[3-(1,1-difluoroethyl)-1-methyl-1H-pyrazol-5-yl]-N-methyl-3′-(5-{4-[(trifluoromethyl)oxy]phenyl}-1H-1,2,3-triazol-1-yl)biphenyl-3-sulfonamide]	38	86	
Cc1nc(-c2ccc(OC(F)(F)F)cc2)c(-c2cc(-c3cccc(C(C)(C)C(N)=O)c3)ccc2-n2ccc(COC(N)=O)n2)o1 [Example 376, (1-(3′-(1-amino-2-methyl-1-oxopropan-2-yl)-3-(2-methyl-4-(4-(trifluoromethoxy)phenyl)oxazol-5-yl)-[1,1′-biphenyl]-4-yl)-1H-pyrazol-3-yl)methyl carbamate]	1300	53	
Cc1nc(-c2ccc(OC(F)(F)F)cc2)c(-c2cc(-c3cccc(S(C)(=O)=O)c3)ccc2-n2nc(C(F)(F)F)cc2C)o1 [Example 331, 2-methyl-5-(4-(5-methyl-3-(trifluoromethyl)-1H-pyrazol-1-yl)-3′-(methylsulfonyl)biphenyl-3-yl)-4-(4-(trifluoromethoxy)phenyl)oxazole]	61	82	
Cn1nc(C(F)(F)F)cc1-c1ccc(-c2cccc(S(C)(=O)=O)c2)cc1-n1nncc1-c1ccc(OC(F)(F)F)cc1 [Example 14, 1-{3′-(methylsulfonyl)-4-[1-methyl-3-(trifluoromethyl)-1H-pyrazol-5-yl]biphenyl-3-yl}-5-{4-[(trifluoromethyl)oxy]phenyl}-1H-1,2,3-triazole]	32	99	
CNS(=O)(=O)c1cccc(-c2ccc(-n3cc(Cl)c(C(F)(F)F)n3)c(-c3oc(C)nc3-c3ccc(OC(F)(F)F)cc3)c2)c1 [Example 444, 4′-(4-chloro-3-(trifluoromethyl)-1H-pyrazol-1-yl)-N-methyl-3′-(2-methyl-4-(4-(trifluoromethoxy)phenyl)oxazol-5-yl)-[1,1′-biphenyl]-3-sulfonamide]	76	63	
Cc1nc(-c2cc(-c3cccc(S(C)(=O)=O)c3)ccc2-n2nc(C(F)(F)F)cc2Cl)c(-c2ccc(OC(F)(F)F)cc2)o1 [Example 406, 4-(4-(5-chloro-3-(trifluoromethyl)-1H-pyrazol-1-yl)-3′-(methylsulfonyl)biphenyl-3-yl)-2-methyl-5-(4-(trifluoromethoxy)phenyl)oxazole]	143	63	
Cn1nc(C(F)(F)C#N)cc1-c1ccc(-c2cccc(S(C)(=O)=O)c2)cc1-n1nncc1-c1ccc(OC(F)(F)F)cc1 [Example 30, 2,2-difluoro-2-(1-methyl-5-(3′-(methylsulfonyl)-3-(5-(4-(trifluoromethoxy)phenyl)-1H-1,2,3-triazol-1-yl)-[1,1′-biphenyl]-4-yl)-1H-pyrazol-3-yl)acetonitrile]	1090	15	
Cc1c(C(C)(F)F)nn(C)c1-c1ccc(-c2ccc(CO)c(S(C)(=O)=O)c2)cc1-n1nncc1-c1ccc(OC(F)(F)F)cc1 [Example 11, (4′-(3-(1,1-difluoroethyl)-1,4-dimethyl-1H-pyrazol-5-yl)-3-(methylsulfonyl)-3′-(5-(4-(trifluoromethoxy)phenyl)-1H-1,2,3-triazol-1-yl)biphenyl-4-yl)methanol]	15	104	
